# Measured values as given in patent US10941157B2, “Pesticidal compositions and uses thereof” (Gilead Apollo, LLC, priority 2015, dated 2021).
# Read-outs that look alike come from different tables or passages of the source.
# Key:
# [1] = tested on: Blumeria graminis f. sp. hordei; assay: Foliar protection test for barley powdery mildew control; assay type: in vivo; conditions: foliar spray on Hordeum vulgare cv. Perry, inoculated 24 hours after treatment, evaluated 7 days later
# Method in brief: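 Protective foliar test: compound atomized onto both leaf surfaces of 6-day-old Hordeum vulgare cv. Perry, followed after 24 h by spore-cloud inoculation from colonized untreated plants. Disease rated on leaves 7 days on, plants held at 20 to 22° C and 70% RH.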
# [2] = tested on: Fusarium virguliforme (Fv); assay: In vitro pathogen growth inhibition assay, Fv; assay type: cell-based; conditions: ≥90% growth inhibition, 48 hours, vs 2% DMSO control, read-out: Compound Concentration (ppm) sufficient for ≥90% inhibition of Fv
# Method in brief: (§1)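 Spores in 17% V8 liquid medium, or 1.5 mm Rs mycelial plugs in ¼ PDB, incubated with compound; final concentration checked by OD600 for precipitation. OD readings at 24 and 48 h, blank-subtracted, plus visual ratings; value is concentration giving ≥90% growth inhibition.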
# Sphaerotheca fuliginea = assay: Foliar protection for cucumber powdery mildew control; assay type: in vivo; conditions: foliar spray on Cucumis sativus cv. Straight Eight, inoculated 24 hours after treatment, evaluated 7 days later
# Method in brief: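 Protective foliar spray on 10-day-old Straight Eight cucumbers, with S. fuliginea spores dusted from infected stock plants 24 h after treatment. Disease developed at 23–27 °C, 60% RH and a 16 h photoperiod. Leaves were rated for mildew growth after 7 days; test rates 10 ppm or below.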
# Fusarium graminearum [3] = assay type: in vivo; conditions: spray on flowering Triticum aestivum cv. Samson, inoculated 24 hours after treatment, evaluated 14 days later
# Septoria tritici (St) = assay: In vitro pathogen growth inhibition assay, St; assay type: cell-based; conditions: Zymoseptoria tritici, 48 h, ≥90% growth inhibition; 48 hours; vs 2% DMSO control; read-out: Compound Concentration (ppm) sufficient for ≥90% inhibition of St
# Method in brief: (§2)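 Value reported is the compound concentration reaching ≥90% growth inhibition, from OD readings at 24 and 48 h after blank subtraction, confirmed visually. Inoculum was spores diluted in 17% V8 medium, except Rs, using 1.5 mm mycelial plugs in ¼ PDB; actual compound concentration corrected via OD600.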
# Fusarium graminearum [4] = assay type: in vivo; conditions: corn from treated seeds, 0.025 mg/seed, F. graminearum inoculated
# [5] = tested on: Fusarium moniliforme (Fm); assay: In vitro pathogen growth inhibition assay, Fm; assay type: cell-based; conditions: Fusarium verticillioides; ≥90% growth inhibition; 48 hours; vs 2% DMSO control; read-out: Compound Concentration (ppm) sufficient for ≥90% inhibition of Fm
# Method in brief: as §2
# [6] = tested on: Mycosphaerella graminicola (synthetic Septoria tritici); assay: Foliar protection test for wheat septoria leaf blotch control; assay type: in vivo; conditions: foliar spray on Triticum aestivum cv. WinterHawk, inoculated 1 hour after treatment, evaluated 16 days later
# Phakopsora pachyrhizi = assay: Foliar protection test for Asian soybean rust control; assay type: in vivo; conditions: foliar application to soybean (Glycine max AG4832), percent disease area evaluated 14 days later
# Botrtyis cinerea (Bc) = assay: In vitro pathogen growth inhibition assay, Bc; assay type: cell-based; conditions: 48 h, ≥90% growth inhibition; 48 hours; vs 2% DMSO control; read-out: Compound Concentration (ppm) sufficient for ≥90% inhibition of Bc
# Method in brief: as §2
# Rhizoctonia solani (Rs) = assay: In vitro pathogen growth inhibition assay, Rs (mycelial plugs); assay type: cell-based; conditions: Rhizoctonia solani, 48 h, ≥90% growth inhibition; mycelial plugs; 48 hours; vs 2% DMSO control; read-out: Compound Concentration (ppm) sufficient for ≥90% inhibition of Rs
# Method in brief: as §1
# Puccinia triticina = assay: Foliar protection test for wheat leaf rust control; assay type: in vivo; conditions: foliar application to wheat (Triticum aestivum cv. Winterhawk), evaluated 10 days later
# [7] = tested on: Collectotrichum graminicola (Cg); assay: In vitro pathogen growth inhibition assay, Cg; assay type: cell-based; conditions: 48 h, ≥90% growth inhibition; 48 hours; vs 2% DMSO control; read-out: Compound Concentration (ppm) sufficient for ≥90% inhibition of Cg
# Method in brief: as §2
# Diplodia maydis (Dm) = assay: In vitro pathogen growth inhibition assay, Dm; assay type: cell-based; conditions: Stenocarpella maydis, 48 h, ≥90% growth inhibition; 48 hours; vs 2% DMSO control; read-out: Compound Concentration (ppm) sufficient for ≥90% inhibition of Dm
# Method in brief: as §1
# [8] = tested on: Phytophthora capsici (Pc); assay: In vitro pathogen growth inhibition assay, Pc; assay type: cell-based; conditions: 48 h, ≥90% growth inhibition, 48 hours, vs 2% DMSO control, read-out: Compound Concentration (ppm) sufficient for ≥90% inhibition of Pc
# Method in brief: as §1
Compound,Barley Powdery Mildew Control at a compound concentration of 10 ppm or lower [1],IC90 [2],Cucumber Powdery Mildew Control at a compound concentration of 10 ppm or lower (Sphaerotheca fuliginea),Wheat Fusarium Head Blight Control at a compound concentration of 25 ppm or lower (Fusarium graminearum [3]),IC90 (Septoria tritici (St)),Plant Height (Fusarium graminearum [4]; Table 13),IC90 [5],Septoria Leaf Blotch Control at a compound concentration of 25 ppm or lower [6],Asian Soybean Rust Control at a compound concentration of 25 ppm or lower (Phakopsora pachyrhizi),IC90 (Botrtyis cinerea (Bc)),IC90 (Rhizoctonia solani (Rs)),Wheat Leaf Rust Control at a compound concentration of 10 ppm or lower (Puccinia triticina),IC90 [7],IC90 (Diplodia maydis (Dm)),IC90 [8],Plant Height (Fusarium graminearum [4]; Table 12)
"CCNC(=O)C(C)(C)n1c(=O)c2c(C)c(-n3nccn3)sc2n(C[C@H](OCCC#N)c2cc(F)ccc2OC)c1=O [Compound I-206, (R)-2-(1-(2-(2-cyanoethoxy)-2-(5-fluoro-2-methoxyphenyl)ethyl)-5-methyl-2,4-dioxo-6-(2H-1,2,3-triazol-2-yl)-1,4-dihydrothieno[2,3-d]pyrimidin-3 (2H)-yl)-N-ethyl-2-methylpropanamide]",AA (≥85% control of barley powdery mildew),0.4 µg/mL,AA (≥85% control of cucumber powdery mildew),B (from 50 to 69% control of wheat fusarium head blight),> 50 µg/mL,42.72 cm,0.08 µg/mL,AA (≥85% control of wheat septoria leaf blotch),AA (≥85% control of Asian soybean rust),0.4 µg/mL,0.08 µg/mL,AA (≥85% control of wheat leaf rust),0.4 µg/mL,0.4 µg/mL,> 50 µg/mL,
"COc1ccc(F)cc1[C@H](Cn1c(=O)n([C@H](C)C(=O)NC(C)C)c(=O)c2c(C)c(-n3nccn3)sc21)OCC(C)(C)C#N [Compound I-253, (R)-2-(1-((R)-2-(2-cyano-2-methylpropoxy)-2-(5-fluoro-2-methoxyphenyl)ethyl)-5-methyl-2,4-dioxo-6-(2H-1,2,3-triazol-2-yl)-1,4-dihydrothieno[2,3-d]pyrimidin-3 (2H)-yl)-N-isopropylpropanamide]",A (from 70% to 84% control of barley powdery mildew),0.4 µg/mL,AA (≥85% control of cucumber powdery mildew),B (from 50 to 69% control of wheat fusarium head blight),≥ 2 µg/mL,37.81 cm,0.08 µg/mL,AA (≥85% control of wheat septoria leaf blotch),A (from 70% to 84% control of Asian soybean rust),0.4 µg/mL,0.08 µg/mL,AA (≥85% control of wheat leaf rust),0.4 µg/mL,0.4 µg/mL,≥ 50 µg/mL,
"COc1ccc(F)cc1[C@H](Cn1c(=O)n([C@H](C)C(=O)N(C)C(C)C)c(=O)c2c(C)c(-n3nccn3)sc21)OCCC#N [Compound I-205, (R)-2-(1-((R)-2-(2-cyanoethoxy)-2-(5-fluoro-2-methoxyphenyl)ethyl)-5-methyl-2,4-dioxo-6-(2H-1,2,3-triazol-2-yl)-1,4-dihydrothieno[2,3-d]pyrimidin-3 (2H)-yl)-N-isopropyl-N-methylpropanamide]",AA (≥85% control of barley powdery mildew),0.4 µg/mL,AA (≥85% control of cucumber powdery mildew),C (from 25 to 49% control of wheat fusarium head blight),> 50 µg/mL,41.47 cm,0.4 µg/mL,AA (≥85% control of wheat septoria leaf blotch),AA (≥85% control of Asian soybean rust),0.4 µg/mL,0.08 µg/mL,AA (≥85% control of wheat leaf rust),0.4 µg/mL,≥ 0.08 µg/mL,> 50 µg/mL,
"COc1ccc(F)cc1[C@@H](O)Cn1c(=O)n(C(C)(C)C(=O)NC(C)C)c(=O)c2c(C)c(-n3nccn3)sc21 [Compound I-185, (R)-2-(1-(2-(5-fluoro-2-methoxyphenyl)-2-hydroxyethyl)-5-methyl-2,4-dioxo-6-(2H-1,2,3-triazol-2-yl)-1,4-dihydrothieno[2,3-d]pyrimidin-3 (2H)-yl)-N-isopropyl-2-methylpropanamide]",AA (≥85% control of barley powdery mildew),0.08 µg/mL,AA (≥85% control of cucumber powdery mildew),A (from 70% to 84% control of wheat fusarium head blight),≥ 50 µg/mL,,0.08 µg/mL,AA (≥85% control of wheat septoria leaf blotch),AA (≥85% control of Asian soybean rust),0.4 µg/mL,0.08 µg/mL,AA (≥85% control of wheat leaf rust),0.4 µg/mL,0.4 µg/mL,≥ 10 µg/mL,45.66 cm
